The results in this text go back to patent US20250296971A1, “GASTRIC INHIBITORY PEPTIDE RECEPTOR LIGANDS” (priority 2021, published 2025).

The assay concerns the target T1, GIPR (CHO-K1-hGIPR cells) (Homo sapiens, UniProt P48546).
T1 construct: host or cells: CHO-K1
T1 sequence (P48546 22-466): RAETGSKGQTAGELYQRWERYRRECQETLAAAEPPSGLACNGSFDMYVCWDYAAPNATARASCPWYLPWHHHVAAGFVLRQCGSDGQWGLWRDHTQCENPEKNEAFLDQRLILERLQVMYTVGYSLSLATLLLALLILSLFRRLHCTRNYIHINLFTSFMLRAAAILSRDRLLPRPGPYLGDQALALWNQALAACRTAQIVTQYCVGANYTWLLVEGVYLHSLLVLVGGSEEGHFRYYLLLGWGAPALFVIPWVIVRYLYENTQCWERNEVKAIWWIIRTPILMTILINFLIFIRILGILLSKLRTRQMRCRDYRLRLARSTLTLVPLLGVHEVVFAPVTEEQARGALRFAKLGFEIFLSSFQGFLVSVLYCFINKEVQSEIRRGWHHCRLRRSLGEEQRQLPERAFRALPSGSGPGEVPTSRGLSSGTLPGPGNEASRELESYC
Put plainly: FACS binding assay. The conditions noted are these: competition with 20 nM GIP-057, 4° C., 1 hour, read-out: pIC50 Category (converted). In short, it runs like this: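 Read-out: flow cytometric median fluorescence intensity, APC/Cy5 channel, plotted vs peptide conc.; 4PL fit → EC50/pEC50 or IC50/pIC50. Cells: CHO-K1-hGIPR, Accutase-detached, 500.000/mL in PBS + 1% FCS. Detection: APC-streptavidin 1 μg/mL, 30 min, on ice.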
(In general: A flow cytometer gives signals particle by particle.)

Structures are written as SMILES. *1 amine or outer side, *2 acyl side, *3 side chain or, on linkers, in order; H or OH if unused. Where a SMILES comes first, the peptide text is derived from it. Bridges are numbered along the chain shown (N, C = ends). [ ]: non-standard residue; d: D form. Trp(5-Cl) = N[C@@H](Cc1c[nH]c2ccc(Cl)cc12)C(=O)O; Pyridine(2,6-diCH2) = c1cc(C[*:1])nc(C[*:2])c1; Trp(7-F) = N[C@@H](Cc1c[nH]c2c(F)cccc12)C(=O)O; X22 = O=C([C@H](Cc1cccc(Cl)c1Cl)N[*:1])[*:2]; Hyp = O=C(O)[C@@H]1C[C@@H](O)CN1; Tle = CC(C)(C)[C@H](N)C(=O)O; Thp = NC1(C(=O)O)CCOCC1 Bounds are passed on as bounds.

For `CC[C@H](C)[C@@H]1NC(=O)[C@H](CC(C)C)NC(=O)C2(CCOCC2)NC(=O)[C@@H](NC(=O)[C@@H](CC(C)C)NC(=O)[C@H](CCC(=O)O)NC(=O)[C@@H]2C[C@@H](O)CN2C(=O)[C@H](Cc2c[nH]c3ccc(Cl)cc23)NC(=O)[C@H](Cc2ccccc2)NC(=O)[C@H](CC(=O)O)NC(C)=O)CSCc2cccc(n2)CSC[C@@H](C(N)=O)NC1=O` [GIP-224, Ac-Asp-Phe-5Clw-Hyp-Glu-leu-[Cys(2Lut)-Thp-Leu-Ile-Cys]-NH2] (Ac-DF[Trp(5-Cl)][Hyp]E[dL]C[Thp]LIC-NH2; linker 7-11 via Pyridine(2,6-diCH2)), the IC50 is under 10 nM. Turning to `CC[C@H](C)[C@@H]1NC(=O)[C@H](CC(C)C)NC(=O)C2(CCOCC2)NC(=O)[C@@H](NC(=O)[C@@H](CC(C)C)NC(=O)[C@H](CCC(=O)O)NC(=O)[C@@H]2C[C@@H](O)CN2C(=O)[C@H](Cc2c[nH]c3ccc(Cl)cc23)NC(=O)[C@H](Cc2cccc(Cl)c2Cl)NC(=O)[C@H](CC(=O)O)NC(C)=O)CSCc2cccc(n2)CSC[C@@H](C(N)=O)NC1=O` [GIP-226, Ac-Asp-Egp-5Clw-Hyp-Glu-leu-[Cys(2Lut)-Thp-Leu-Ile-Cys]-NH2] (Ac-D[X22][Trp(5-Cl)][Hyp]E[dL]C[Thp]LIC-NH2; linker 7-11 via Pyridine(2,6-diCH2)), the IC50 is under 10 nM. With `CC[C@H](C)[C@@H]1NC(=O)[C@H](CC(C)C)NC(=O)C2(CCOCC2)NC(=O)[C@@H](NC(=O)[C@@H](CC(C)C)NC(=O)[C@H](CCC(=O)O)NC(=O)[C@@H]2C[C@@H](O)CN2C(=O)[C@H](Cc2c[nH]c3c(F)cccc23)NC(=O)[C@H](Cc2c[nH]c3ccccc23)NC(=O)[C@H](CC(=O)O)NC(C)=O)CSCc2cccc(n2)CSC[C@@H](C(N)=O)NC1=O` [GIP-227, Ac-Asp-Trp-7Fw-Hyp-Glu-leu-[Cys(2Lut)-Thp-Leu-Ile-Cys]-NH2] (Ac-DW[Trp(7-F)][Hyp]E[dL]C[Thp]LIC-NH2; linker 7-11 via Pyridine(2,6-diCH2)), the IC50 was under 10 nM.

Regarding `CC[C@H](C)[C@@H]1NC(=O)[C@H](CC(C)C)NC(=O)[C@H](Cc2ccccc2)NC(=O)[C@@H](NC(=O)[C@@H](CC(C)C)NC(=O)[C@H](CCC(=O)O)NC(=O)[C@@H]2C[C@@H](O)CN2C(=O)[C@H](Cc2c[nH]c3ccc(Cl)cc23)NC(=O)[C@H](Cc2c[nH]c3ccccc23)NC(=O)[C@H](CC(=O)O)NC(C)=O)CSCc2cccc(n2)CSC[C@@H](C(N)=O)NC1=O` [GIP-228, Ac-Asp-Trp-5Clw-Hyp-Glu-leu-[Cys(2Lut)-Phe-Leu-Ile-Cys]-NH2] (Ac-DW[Trp(5-Cl)][Hyp]E[dL]CFLIC-NH2; linker 7-11 via Pyridine(2,6-diCH2)), the IC50 was under 10 nM.

Turning to `CC[C@H](C)[C@@H]1NC(=O)[C@H]([C@@H](C)CC)NC(=O)C2(CCOCC2)NC(=O)[C@@H](NC(=O)[C@@H](CC(C)C)NC(=O)[C@H](CCC(=O)O)NC(=O)[C@@H]2C[C@@H](O)CN2C(=O)[C@H](Cc2c[nH]c3ccc(Cl)cc23)NC(=O)[C@H](Cc2c[nH]c3ccccc23)NC(=O)[C@H](CC(=O)O)NC(C)=O)CSCc2cccc(n2)CSC[C@@H](C(N)=O)NC1=O` [GIP-229, Ac-Asp-Trp-5Clw-Hyp-Glu-leu-[Cys(2Lut)-Thp-Ile-Ile-Cys]-NH2] (Ac-DW[Trp(5-Cl)][Hyp]E[dL]C[Thp]IIC-NH2; linker 7-11 via Pyridine(2,6-diCH2)), the IC50 was under 10 nM. As for `CC[C@H](C)[C@@H]1NC(=O)[C@H](CCCNC(=N)N)NC(=O)C2(CCOCC2)NC(=O)[C@@H](NC(=O)[C@@H](CC(C)C)NC(=O)[C@H](CCC(=O)O)NC(=O)[C@@H]2C[C@@H](O)CN2C(=O)[C@H](Cc2c[nH]c3ccc(Cl)cc23)NC(=O)[C@H](Cc2c[nH]c3ccccc23)NC(=O)[C@H](CC(=O)O)NC(C)=O)CSCc2cccc(n2)CSC[C@@H](C(N)=O)NC1=O` [GIP-230, Ac-Asp-Trp-5Clw-Hyp-Glu-leu-[Cys(2Lut)-Thp-Arg-Ile-Cys]-NH2] (Ac-DW[Trp(5-Cl)][Hyp]E[dL]C[Thp]RIC-NH2; linker 7-11 via Pyridine(2,6-diCH2)), the IC50 was under 10 nM.

With `CC[C@H](C)[C@@H]1NC(=O)[C@H](CCC(=O)O)NC(=O)C2(CCOCC2)NC(=O)[C@@H](NC(=O)[C@@H](CC(C)C)NC(=O)[C@H](CCC(=O)O)NC(=O)[C@@H]2C[C@@H](O)CN2C(=O)[C@H](Cc2c[nH]c3ccc(Cl)cc23)NC(=O)[C@H](Cc2c[nH]c3ccccc23)NC(=O)[C@H](CC(=O)O)NC(C)=O)CSCc2cccc(n2)CSC[C@@H](C(N)=O)NC1=O` [GIP-231, Ac-Asp-Trp-5Clw-Hyp-Glu-leu-[Cys(2Lut)-Thp-Glu-Ile-Cys]-NH2] (Ac-DW[Trp(5-Cl)][Hyp]E[dL]C[Thp]EIC-NH2; linker 7-11 via Pyridine(2,6-diCH2)), the IC50 was under 10 nM. `CC[C@H](C)[C@@H]1NC(=O)[C@H](Cc2ccccc2)NC(=O)C2(CCOCC2)NC(=O)[C@@H](NC(=O)[C@@H](CC(C)C)NC(=O)[C@H](CCC(=O)O)NC(=O)[C@@H]2C[C@@H](O)CN2C(=O)[C@H](Cc2c[nH]c3ccc(Cl)cc23)NC(=O)[C@H](Cc2c[nH]c3ccccc23)NC(=O)[C@H](CC(=O)O)NC(C)=O)CSCc2cccc(n2)CSC[C@@H](C(N)=O)NC1=O` [GIP-232, Ac-Asp-Trp-5Clw-Hyp-Glu-leu-[Cys(2Lut)-Thp-Phe-Ile-Cys]-NH2] (Ac-DW[Trp(5-Cl)][Hyp]E[dL]C[Thp]FIC-NH2; linker 7-11 via Pyridine(2,6-diCH2)): the IC50 is under 10 nM. Turning to `CC[C@H](C)[C@@H]1NC(=O)[C@H](Cc2c[nH]c3ccccc23)NC(=O)C2(CCOCC2)NC(=O)[C@@H](NC(=O)[C@@H](CC(C)C)NC(=O)[C@H](CCC(=O)O)NC(=O)[C@@H]2C[C@@H](O)CN2C(=O)[C@H](Cc2c[nH]c3ccc(Cl)cc23)NC(=O)[C@H](Cc2c[nH]c3ccccc23)NC(=O)[C@H](CC(=O)O)NC(C)=O)CSCc2cccc(n2)CSC[C@@H](C(N)=O)NC1=O` [GIP-233, Ac-Asp-Trp-5Clw-Hyp-Glu-leu-[Cys(2Lut)-Thp-Trp-Ile-Cys]-NH2] (Ac-DW[Trp(5-Cl)][Hyp]E[dL]C[Thp]WIC-NH2; linker 7-11 via Pyridine(2,6-diCH2)), the IC50 is under 10 nM. Take `CC[C@H](C)[C@@H]1NC(=O)[C@H](CC(C)C)NC(=O)[C@H](Cc2c[nH]c3ccccc23)NC(=O)[C@@H](NC(=O)[C@@H](CC(C)C)NC(=O)[C@H](CCC(=O)O)NC(=O)[C@@H]2C[C@@H](O)CN2C(=O)[C@H](Cc2c[nH]c3ccc(Cl)cc23)NC(=O)[C@H](Cc2c[nH]c3ccccc23)NC(=O)[C@H](CC(=O)O)NC(C)=O)CSCc2cccc(n2)CSC[C@@H](C(N)=O)NC1=O` [GIP-234, Ac-Asp-Trp-5Clw-Hyp-Glu-leu-[Cys(2Lut)-Trp-Leu-Ile-Cys]-NH2] (Ac-DW[Trp(5-Cl)][Hyp]E[dL]CWLIC-NH2; linker 7-11 via Pyridine(2,6-diCH2)): the IC50 was under 10 nM. With `CC[C@H](C)[C@@H]1NC(=O)[C@H](CC(C)C)NC(=O)[C@H](CCC(=O)O)NC(=O)[C@@H](NC(=O)[C@@H](CC(C)C)NC(=O)[C@H](CCC(=O)O)NC(=O)[C@@H]2C[C@@H](O)CN2C(=O)[C@H](Cc2c[nH]c3ccc(Cl)cc23)NC(=O)[C@H](Cc2c[nH]c3ccccc23)NC(=O)[C@H](CC(=O)O)NC(C)=O)CSCc2cccc(n2)CSC[C@@H](C(N)=O)NC1=O` [GIP-235, Ac-Asp-Trp-5Clw-Hyp-Glu-leu-[Cys(2Lut)-Glu-Leu-Ile-Cys]-NH2] (Ac-DW[Trp(5-Cl)][Hyp]E[dL]CELIC-NH2; linker 7-11 via Pyridine(2,6-diCH2)) the figure was under 10 nM; with `CC[C@H](C)[C@@H]1NC(=O)[C@H](CO)NC(=O)C2(CCOCC2)NC(=O)[C@@H](NC(=O)[C@@H](CC(C)C)NC(=O)[C@H](CCC(=O)O)NC(=O)[C@@H]2C[C@@H](O)CN2C(=O)[C@H](Cc2c[nH]c3ccc(Cl)cc23)NC(=O)[C@H](Cc2c[nH]c3ccccc23)NC(=O)[C@H](CC(=O)O)NC(C)=O)CSCc2cccc(n2)CSC[C@@H](C(N)=O)NC1=O` [GIP-236, Ac-Asp-Trp-5Clw-Hyp-Glu-leu-[Cys(2Lut)-Thp-Ser-Ile-Cys]-NH2] (Ac-DW[Trp(5-Cl)][Hyp]E[dL]C[Thp]SIC-NH2; linker 7-11 via Pyridine(2,6-diCH2)), under 10 nM; with `CC(=O)N[C@@H](CC(=O)O)C(=O)N[C@@H](Cc1c[nH]c2ccccc12)C(=O)N[C@@H](Cc1c[nH]c2ccc(Cl)cc12)C(=O)N1C[C@H](O)C[C@H]1C(=O)N[C@@H](CCC(=O)O)C(=O)N[C@H](CC(C)C)C(=O)N[C@H]1CSCc2cccc(n2)CSC[C@@H](C(N)=O)NC(=O)[C@H](CC(C)C)NC(=O)[C@H](CC(C)C)NC(=O)C2(CCOCC2)NC1=O` [GIP-237, Ac-Asp-Trp-5Clw-Hyp-Glu-leu-[Cys(2Lut)-Thp-Leu-Leu-Cys]-NH2] (Ac-DW[Trp(5-Cl)][Hyp]E[dL]C[Thp]LLC-NH2; linker 7-11 via Pyridine(2,6-diCH2)), under 10 nM.

With `CC(=O)N[C@@H](CC(=O)O)C(=O)N[C@@H](Cc1c[nH]c2ccccc12)C(=O)N[C@@H](Cc1c[nH]c2ccc(Cl)cc12)C(=O)N1C[C@H](O)C[C@H]1C(=O)N[C@@H](CCC(=O)O)C(=O)N[C@H](CC(C)C)C(=O)N[C@H]1CSCc2cccc(n2)CSC[C@@H](C(N)=O)NC(=O)[C@H](C(C)(C)C)NC(=O)[C@H](CC(C)C)NC(=O)C2(CCOCC2)NC1=O` [GIP-238, Ac-Asp-Trp-5Clw-Hyp-Glu-leu-[Cys(2Lut)-Thp-Leu-Tle-Cys]-NH2] (Ac-DW[Trp(5-Cl)][Hyp]E[dL]C[Thp]L[Tle]C-NH2; linker 7-11 via Pyridine(2,6-diCH2)), the IC50 was under 10 nM.
